Laboratory results taken from PubChem BioAssay AID179 (DTP/NCI, 2004).
The source made the active and inactive calls.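 How the source made its calls: active means compounds giving half or more protection of infected cells from virus-caused growth loss, again on retest; inactive means the rest.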 Where a SMILES comes first, the peptide text is derived from it. [ ]: non-standard residue; d: D form. The star is where a group is joined. Tyr(3-Br) = N[C@@H](Cc1ccc(O)c(Br)c1)C(=O)O; Boc = CC(C)(C)OC(=O)*

Test system: CEM cells HIV-1 protection, formazan growth assay
Assay: NCI AIDS Antiviral Assay
Conditions: for IC50: measured here: growth of uninfected CEM cells
How it was run: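 Soluble formazan readout of cell growth; CEM cells ± HIV-1; 5 drug concs. ≥50% protection → retest; ≥50% again = moderately active; reproducible 100% = confirmed active.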

| SMILES | EC50 | IC50 | outcome |
| --- | --- | --- | --- |
| CC1(C)CC[C@]2(C(=O)OC3OC(CO)C(O)C(O)C3O)CCC3(C)C(=CCC4[C@@]5(C)C[C@H](O)[C@H](OC6OC(CO)C(O)C(O)C6O)[C@@](C)(C(=O)O)C5CC[C@]43C)C2C1 (stereo partly drawn) | > 191 µM | > 191 µM |  |
| CCCCCCCCCCCCCCCCCC(=O)OCCO |  |  | inactive |
| CN1C(c2ccccc2)=CC(=O)C(O)=C(c2ccccc2)S1(=O)=O | > 200 µM | > 200 µM |  |
| c1cc(-c2cscc2-c2ccsc2)cs1 | > 200 µM | 110 µM |  |
| CC1CC/C(=C\c2ccc(F)cc2)C2=C1C(c1ccc(F)cc1)n1c(s/c(=C/c3cccc(Br)c3)c1=O)=N2 (stereo not drawn) |  |  | inactive |
| CCOc1ccc(NC(=O)C(=O)Nn2c(N)nnc2N)cc1 | > 61.7 µM | > 61.7 µM |  |
| O=[N+]([O-])C=C1c2ccccc2-c2ccccc21 |  |  | inactive |
| CC(SCCCCCCCCCCSC(C)C(=O)O)C(=O)O (stereo not drawn) | > 141 µM | > 141 µM |  |
| CCn1c(C)nc([N+](=O)[O-])c1Sc1ncc[nH]1 | > 977 µM | 17.8 µM |  |
| OCCN1CCN(C2=Nc3cccnc3Nc3cscc32)CC1 | > 200 µM | > 200 µM |  |
| N#CCCC(CC#N)N1CCN(C(CC#N)CCC#N)CC1 (stereo not drawn) | > 200 µM | > 200 µM |  |
| COc1ccc(C(C(N)=O)N2CCOCC2)cc1 (stereo not drawn) | 129 µM | > 200 µM |  |
| O=C1C=C(NC(c2ccccc2)c2nc3ccccc3[nH]2)C(c2ccccc2)N1c1ccccc1 (stereo not drawn) |  |  | inactive |
| CCOC(=O)c1c2ccccc2n2c(=O)n(C)nnc12 | > 200 µM | > 200 µM |  |
| C=C1CC[C@@H]2C(C)(C)C(O)CCC2(C)C1COc1ccc2ccc(=O)oc2c1 (stereo partly drawn) | > 67.6 µM | 36.3 µM |  |
| NC(=O)NO |  | 112 µM | inactive |
| O=c1[nH]c(=S)[nH]n1C(=S)n1[nH]c(=S)[nH]c1=O | > 200 µM | > 200 µM |  |
| COC(=O)/C=C\C(C#N)(C#N)N=Cc1cccs1 | > 2 µM | 0.389 µM |  |
| c1ccc(-c2nnc3sc4ccccc4n23)cc1 | > 200 µM | > 200 µM |  |
| O=[N+]([O-])c1cccc2nc3ccccc3c(NCCc3ccccn3)c12 | > 2 µM | 0.0631 µM |  |
| CCc1cccc(C(C)(C)C)c1NC(=S)NC=C(C#N)C#N | > 200 µM | 145 µM |  |
| CC1=CCCC2C(C=O)(C1)CC(C)C2(CO)CC/C(=C/CO)CO (stereo not drawn) |  |  | inactive |

| SMILES | EC50 | IC50 | outcome |
| --- | --- | --- | --- |
| O=C(Nc1cccc(Cc2cccc(NC(=O)c3ccccc3)c2)c1)c1ccccc1 | > 9.33 µM | > 9.33 µM |  |
| CC(C)C12C=CC(C)(CC1)n1c(=O)c3cc4ccccc4cc3c(=O)n12 (stereo not drawn) | > 4.17 µM | > 4.17 µM |  |
| CC(=O)NC(CCCOC(C)=O)C(=O)NC(CCCOC(C)=O)C(=O)NC(CCCOC(C)=O)C(=O)NC(Cc1ccc([N+](=O)[O-])cc1)C(=O)NCC(=O)OCc1ccccc1 (stereo not drawn) | > 200 µM | > 200 µM |  |
| O=c1[nH]c(O)c(/C=N/C(=S)Nc2ccc(S(=O)(=O)Nc3nccs3)cc2)c(=O)[nH]1 | > 200 µM | > 200 µM |  |
| Cc1ccc(N=Nc2c(C)c(C#N)c(=S)n(C3OC(CO)C(O)C(O)C3O)c2-c2ccccc2)cc1 (stereo not drawn) | > 200 µM | 18.6 µM |  |
| O=C(O)c1ccc(S(=O)(=O)c2ccccc2)c([N+](=O)[O-])c1 | > 2510 µM | 288 µM |  |
| COc1cc2cc(OC(C)=O)c3cc4c(cc3c2c(OC)c1OC)OCO4 | > 676 µM | > 676 µM |  |
| O=[N+]([O-])c1cccc(C2=NON(c3ncccn3)C3N=CC=CN23)c1 (stereo not drawn) | > 5.89 µM | > 5.89 µM |  |
| Nc1ccccc1Sc1ccccc1 | > 372 µM | 77.6 µM |  |
| COc1ccc(/C=N/NC(=S)Nc2ccccc2)cc1 | > 200 µM | > 200 µM |  |
| CCc1cccc(CC)c1NC(=S)NC(=O)c1ccc(Br)cc1 | > 18.2 µM | > 18.2 µM |  |
| O=C1/C(=C/c2ccccc2)CN(C(=O)Oc2ccccc2)C/C1=C\c1ccccc1 |  |  | inactive |
| COC(=O)[C@H](Cc1ccc(O)c(Br)c1)NC(=O)[C@H](Cc1ccc(O)cc1)NC(=O)OC(C)(C)C (Boc-Tyr-[Tyr(3-Br)]-OMe) | > 200 µM | 34.7 µM |  |
| CCCN(CCCC(NC(C)=O)C(=O)NCc1ccccc1)C(=O)N(C)N=O (stereo not drawn) | > 174 µM | > 174 µM |  |
| Cc1cn(C2CC(OC3CCCCO3)C(CO)O2)c(=O)[nH]c1=O (stereo not drawn) | > 200 µM | > 200 µM |  |
| NC(=O)CCCNC(=O)c1ccccc1SC(=O)CCCC[n+]1ccccc1 | 0.646 µM | 16.2 µM |  |
| COC(=O)C1C(C(=O)OC)C2C(=O)C3C(C(=O)OC)C(C(=O)OC)C3C(=O)C12 (stereo not drawn) | > 91.2 µM | > 91.2 µM |  |
| c1ccc([P+](Cc2csnn2)(c2ccccc2)c2ccccc2)cc1 | > 331 µM | 174 µM |  |
| CC(CCC(=O)O)CCC(=O)O | > 1450 µM | > 1450 µM |  |
| Cc1cc2c(C(C)C)c(O)c(O)c(C=O)c2c(O)c1-c1c(C)cc2c(C(C)C)c(O)c(O)c(C=Nc3ccccc3SSc3ccccc3N)c2c1O | > 200 µM | 24.5 µM |  |
| CCn1c2ccccc2c2ccc3c(c21)C(=O)c1ccccc1C3=O | > 3.24 µM | > 3.24 µM |  |
| CCC1=C(C)/C(=C/c2[nH]c(C(Br)Br)c(CC)c2C)N=C1C(Br)Br |  |  | inactive |

| SMILES | EC50 | IC50 | outcome |
| --- | --- | --- | --- |
| COC(=O)C1(C2CCOC2=O)NCCc2c1[nH]c1ccccc21 (stereo not drawn) | > 245 µM | 141 µM |  |
| C=CC(=O)C#Cc1cnc(OC)nc1OC | > 200 µM | 1.1 µM |  |
| O=c1[nH]nc2ccccc2c1Cl | > 39.8 µM | 6.76 µM |  |
| CCOC(=O)C(Cc1c(-c2[nH]c3ccccc3c2CC(NC(=O)CNC(C)=O)C(=O)OCC)[nH]c2ccccc12)NC(=O)CNC(C)=O (stereo not drawn) | > 100 µM | 21.9 µM |  |
| COC(CC1(OC)OC(=O)C=C1N)OC (stereo not drawn) |  |  | inactive |
| CC1CCC2(CCN(CCCN(C)C)CC2)C1 (stereo not drawn) |  |  | inactive |
| CCN(CC)CCNc1ccc2ncn3c4cc(OC)c(OC)c(=O)c4c(O)c1c23 | > 50.1 µM | 0.589 µM |  |
| Cc1ccc(S(=O)(=O)NCCCSCCN)cc1 | > 631 µM | 562 µM |  |
| O=[N+]([O-])C(/C=N/Nc1ccccc1)/C=N/Nc1ccccc1 | > 24.5 µM | > 24.5 µM |  |
| O=C(Nc1ccc(C2=NCCN2)cc1)c1ccc(F)c(C(=O)Nc2ccc(C3=NCCN3)cc2)c1 | > 200 µM | > 200 µM |  |
| CC1CN(CCO)CC(C)O1 (stereo not drawn) | > 1580 µM | > 1580 µM |  |
| C=C1NC(=O)C(CC(C(=O)C(=O)Nc2c(C)cccc2C(C)(C)C)C(=O)c2ccc3ccccc3c2)C(=O)N1 (stereo not drawn) | > 178 µM | > 178 µM |  |
| COc1cc(C(=O)C/C(CCCC(=O)Nc2ccccc2[N+](=O)[O-])=N/NC(=O)c2cc3ccccc3cc2O)ccc1O | > 32.4 µM | 27.5 µM |  |
| CC(=O)OCC1OC(OC2C(COC(C)=O)OC(Sc3ccccc3C)C(OC(C)=O)C2OC(C)=O)C(OC(C)=O)C(OC(C)=O)C1OC(C)=O (stereo not drawn) | > 25.1 µM | > 25.1 µM |  |
| O=C(N=C1[Se]C(=Nc2ccccc2)C(=Nc2ccccc2)N1c1ccccc1)c1ccccc1 | > 200 µM | 107 µM |  |
| O=Cc1cc(O)c(O)c(O)c1-c1c(C=O)cc(O)c(O)c1O | > 174 µM | 34.7 µM |  |
| COCC(/C=N/N=C(N)N)=N\N=C(N)N | > 32.4 µM | > 32.4 µM |  |
| NC(CSS(=O)(=O)O)=NCCCCc1ccccc1 | > 200 µM | 107 µM |  |
| c1ccc(-c2ccc(N=NN3CCCC3)cc2)cc1 | > 200 µM | 14.8 µM |  |
| NS(=O)(=O)c1ccc(CNC(=O)c2ccccc2SC(=O)CCCCC[n+]2ccccc2)cc1 | 2.14 µM | 39.8 µM |  |
| CCc1cc2c(=O)[nH]c(-c3cccnc3)nc2s1 | > 200 µM | > 200 µM |  |
| COc1c(C=O)c2c(c(OC)c1OC)-c1ccc(OC)c(=O)cc1[C@@H](NC(C)=O)CC2 | > 0.2 µM | 0.011 µM |  |

| SMILES | EC50 | IC50 | outcome |
| --- | --- | --- | --- |
| Cc1ccc(-c2cc(=O)c3cc(C)c(C)c(C(=O)O)c3o2)cc1N |  |  | inactive |
| COCN(COC)c1nc(CCC(Br)(Br)Br)nc(N(COC)COC)n1 | > 83.2 µM | 37.2 µM |  |
| Nn1c(SCC(=O)NCc2ccccc2)nc2ccccc2c1=O | 12.6 µM | 95.5 µM |  |
| COc1cccc(/C=C2\C(=O)N(C(=O)Cc3ccccc3)N=C2C)c1 | > 15.5 µM | > 15.5 µM |  |
| Cc1cccc(C)c1NC(=O)C(=O)CC(=O)c1sc(Nc2c(C)cccc2C)nc1C | > 200 µM | > 200 µM |  |
| CC1C2=CC=C(O2)C(C)(C)C2=CC=C(O2)C(C)(C)C2=CC=C(O2)C(C)(C)C2=CC=C1O2 |  |  | inactive |
| CC[C@H]1CN2CCc3cc(OC)c(OC)cc3[C@@H]2C[C@@H]1C[C@@H]1c2cc(OC)c(OC)cc2CCN1N=O |  |  | inactive |
| O=[N+]([O-])c1ccc(Cl)cc1C=NC12CC3CC(CC(C3)C1)C2 | > 200 µM | 11.5 µM |  |
| COc1ccc(OC)c(CNc2ccc(C(=O)O)cc2)c1 | > 200 µM | > 200 µM |  |
| c1ccc(CSCSCc2ccccc2)cc1 |  |  | inactive |
| CC1(C)C2CCC13CS(=O)(=O)N(C(=O)[C@H]1CC=CCC1)C3C2 (stereo partly drawn) | > 112 µM | > 112 µM |  |
| Nc1ccc(C(=Nc2ccccc2)c2ccc(N)cc2)cc1 |  |  | inactive |
| Cc1nc(-c2nc(C)c(C(=O)NNC(=O)C[n+]3ccccc3)s2)sc1C(=O)NNC(=O)C[n+]1ccccc1 | > 57.5 µM | > 57.5 µM |  |
| CCOC(=O)c1cc2c(nc1N)C(=O)CCC2 | > 200 µM | 112 µM |  |
| CC1(C)OC2C(COCc3ccccc3)=CC(n3ccc(=O)[nH]c3=O)C2O1 (stereo not drawn) | > 200 µM | > 200 µM |  |
| Clc1ccc(OCC(COc2ccccc2)Oc2nc(-c3ccccc3)nc(-c3ccccc3)n2)cc1 (stereo not drawn) | > 3.89 µM | > 3.89 µM |  |
| O=c1[nH]c2c(c(=O)[nH]1)SC(c1ccccc1)C2 (stereo not drawn) | > 200 µM | > 200 µM |  |
| CCCCCCCCCCCCCCCCCCNc1ccn(C2OC(COP(=O)(O)OCC(COP(=O)(O)OCC3OC(n4cc(C)c(=O)[nH]c4=O)CC3N=[N+]=[N-])OC(=O)CCCCCCCCCCCCCCC)C(O)C2O)c(=O)n1 (stereo not drawn) | 11.2 µM | 69.2 µM |  |
| O=C(CCN1CCCCC1)N1CCc2c([nH]c3ccccc23)C1c1cccnc1 (stereo not drawn) | > 13.5 µM | > 13.5 µM |  |
| CNC(=S)SC1=NS(=O)(=O)c2ccccc2N1 | > 234 µM | 174 µM |  |
